Here are results for eight compounds from article PMC7530112 (European journal of medicinal chemistry, 2020).

Several values for one entry are separate records, joined by “and”; a condition that tells them apart may be missing. Equal entries are not always repeated. Where two headings read alike, the source gives them in different places.

One data set relates to HIV-1NL4-3. As to the kind of experiment: Anti-HIV-1 assay in TZM-GFP cells. The settings on record: for Inhibition% at 2 μM: 2 μM compound; for Inhibition% at 20 μM: 20 μM compound.
For data set [1] the following is noted: HLMs; cited from earlier work.
The conditions of data set [2]: mouse, microsomes.
The conditions of data set [3]: human, microsomes.
Data set [4] is described as follows: Microsomal stability assay, human liver microsomes. The following applies: without Cobi; for Phase I metabolic stability t1/2, HLM: 1 μM compound, 0.5 mg/mL microsomal protein, NADPH.
Data set [5] in a line: Microsomal stability assay, mouse liver microsomes. The settings on record: without Cobi, 1 μM compound, 0.5 mg/mL microsomal protein, NADPH.

Regarding “(S)-N-Methyl-2-(2-(2-methyl-1H-indol-3-yl)acetamido)-N,3-diphenylpropanamide [PF74, reference compound]”, in the data set on HIV-1NL4-3, the “Inhibition% at 2 μM” value came out at 91% and the “Inhibition% at 20 μM” value came to 98%. Further, in data set [1], the “half-life (t1/2) in human liver microsomes” value is given as “less than 1 min”. In addition, in data set [2], the “Phase I metabolic stability t1/2, MLM” value is 0.6 min.

With `CN(C(=O)[C@H](Cc1ccccc1)NC(=O)Cc1ccc2ccccc2c1)c1ccc(Cl)cc1` [Compound 27, (S)-N-(4-Chlorophenyl)-N-methyl-2-(2-(naphthalen-2-yl)acetamido)-3-phenylpropanamide], in the data set on HIV-1NL4-3, the “Inhibition% at 2 μM” value is listed as 95% and the “Inhibition% at 20 μM” value is reported as 100%. In data set [3], the “Phase I metabolic stability t1/2, HLM” value was 2.7 min. The “Phase I metabolic stability t1/2, MLM” value in data set [2] came out at 1.4 min.

With `CN(C(=O)C(Cc1ccccc1)NC(=O)CN1C(=O)NC2(CCCCC2)C1=O)c1ccc(Cl)cc1` (stereo not drawn) [Compound 50, N-(4-Chlorophenyl)-2-(2-(2,4-dioxo-1,3-diazaspiro[4.5]decan-3-yl)acetamido)-N-methyl-3-phenylpropanamide], in the data set with HIV-1NL4-3, the “Inhibition% at 20 μM” value is listed as “−/96%”. Also, the “Phase I metabolic stability t1/2, HLM” value in data set [3] worked out at 2.5 min. For the same compound, the “Phase I metabolic stability t1/2, MLM” value in data set [2] stood at 1.1 min.

With `CN(C(=O)C(Cc1ccccc1)NC(=O)CN1C(=O)NC2(CCCCC2)C1=O)c1ccc(F)cc1` (stereo not drawn) [Compound 48, 2-(2-(2,4-Dioxo-1,3-diazaspiro[4.5]decan-3-yl)acetamido)-N-(4-fluorophenyl)-N-methyl-3-phenylpropanamide], in the data set with HIV-1NL4-3, the “Inhibition% at 2 μM” value stood at 9% and the “Inhibition% at 20 μM” value was 99%. The “Phase I metabolic stability t1/2, HLM” value in data set [4] stood at 1.1 min. For the same compound, the “Phase I metabolic stability t1/2, MLM” value in data set [5] was 0.5 min.

As for “(2S)-N-(3-Chlorophenyl)-2-(2-(4,7-dimethyl-2-oxoindolin-3-yl)acetamido)-N-methyl-3-phenylpropanamide [Compound 24]”, in data set [4], the “fold improved half-life over PF74 in HLMs” value was 7 to 10 fold and 10 fold. Also, in data set [3], the “Phase I metabolic stability t1/2, HLM” value turned out to be 6.7 min. Moreover, in data set [2], the “Phase I metabolic stability t1/2, MLM” value was determined as 1.4 min.

As to “(S)-N-Methyl-2-(2-(naphthalen-1-yl)acetamido)-N,3-diphenylpropanamide [Compound 31]”, in the data set with HIV-1NL4-3, the “Inhibition% at 2 μM” value is listed as 66% and the “Inhibition% at 20 μM” value stood at 100%. Besides, the “Phase I metabolic stability t1/2, HLM” value in data set [4] came out at 0.6 min. The “Phase I metabolic stability t1/2, MLM” value in data set [5] amounted to 0.5 min.

For the compound `COc1ccc(N(C)C(=O)C(Cc2ccccc2)NC(=O)CN2C(=O)NC3(CCCCC3)C2=O)cc1` (stereo not drawn) [Compound 46, 2-(2-(2,4-Dioxo-1,3-diazaspiro[4.5]decan-3-yl)acetamido)-N-(4-methoxyphenyl)-N-methyl-3-phenylpropanamide], the “Inhibition% at 20 μM” value with HIV-1NL4-3 is given as “−/93%”. In addition, in data set [4], the “fold improved half-life over PF74 in HLMs” value was in the range of 7 to 10 fold and the “Phase I metabolic stability t1/2, HLM” value is given as 5.2 min. Also, the “Phase I metabolic stability t1/2, MLM” value in data set [5] is listed as 0.7 min.

As to “(S)-N-(4-Chlorophenyl)-N-methyl-2-(2-(naphthalen-1-yl)acetamido)-3-phenylpropanamide [Compound 33]”, in the data set on HIV-1NL4-3, the “Inhibition% at 2 μM” value is recorded as 98% and the “Inhibition% at 20 μM” value is listed as 100%. Besides, in data set [3], the “Phase I metabolic stability t1/2, HLM” value came out at 1.1 min. The “Phase I metabolic stability t1/2, MLM” value in data set [2] is listed as 0.6 min.
